Data as given in US9296748B2, “Pyridinones” (Boehringer Ingelheim International GmbH, priority 2013, dated 2016).

Each compound was assayed against BRD4-BD1 (Homo sapiens (Human), UniProt O60885) (assay: BRD4-H4 Tetraacetylated Peptide Inhibition AlphaScreen). Details: GST-BRD4-BD1 (aa 44-168), biotinylated Acetyl-Histone H4 peptide.
Assay type: binding
Procedure: Compounds are diluted in serial dilution 1:5 in assay buffer from 10 mM stock in DMSO (100 μM start concentration) in white OptiPlate-384 (PerkinElmer). […] Subsequently, 6 μl of premixed AlphaLISA Glutathione Acceptor Beads and AlphaScreen Streptavidin Donor Beads from PerkinElmer (in assay buffer at a concentration of 10 μg/ml each) are added and the samples are incubated for 30 min at RT in the dark (shaking 300 rpm). Afterwards, the signal is measured in a PerkinElmer Envision HTS Multilabel Reader using the AlphaScreen protocol from PerkinElmer. […] Negative control values are entered as low basis value when using the software GraphPad Prism for calculations. Furthermore, a positive control (probe molecule JQ1+ with protein/peptide mix) is pipetted. Determination of IC50 values are carried out using GraphPad Prism 3.03 software (or updates thereof).
Work on `COC[C@H](C)n1c(-c2cc(C)c(=O)n(C)c2)nc2ccc(N3CCOC[C@@H]3C)cc21` [Example I-31] yielded an IC50 of 75 nM. For `COC[C@H](C)n1c(-c2cc(C)c(=O)n(C)c2)nc2ccc(N)cc21` [Example I-32], the IC50 was 268 nM. With `Cc1cc(-c2nc3ccc(C4CN(C)CCO4)cc3n2[C@@H](C)c2ccccc2)nn(C)c1=O` (stereo partly drawn) [Example I-33] the IC50 was 47 nM. For `Cc1cc(-c2nc3ccc(C4CN(C)CCO4)cc3n2[C@@H](C)c2ccccc2)cn(C)c1=O` (stereo partly drawn) [Example I-34], the IC50 was 49 nM. In the case of `Cc1cc(-c2nc3ccc(C4CCN(C)C(=O)C4)cc3n2[C@@H](C)c2ccccc2)cn(C)c1=O` (stereo partly drawn) [Example I-35], the IC50 is reported as 23 nM. `COC[C@H](C)n1c(-c2cc(C)c(=O)n(C)n2)nc2ccc(N3CCOC[C@@H]3C)cc21` [Example I-36] gave an IC50 of 65 nM. `Cc1cc(-c2nc3ccc(C4(C(F)(F)F)CC4)cc3n2[C@@H](C)c2ccccc2)cn(C)c1=O` [Example I-37] gave an IC50 of 103 nM. For `Cc1cc(-c2nc3ccc(C4CCN(C)C(=O)C4)cc3n2[C@@H](C)c2ccccc2)nn(C)c1=O` (stereo partly drawn) [Example I-38], the IC50 was 32 nM. Compound `CC1CC(=O)NN=C1c1ccc2c(c1)nc(-c1cc(N)c(=O)n(C)c1)n2Cc1ccccc1` (stereo not drawn) [Example V-1, 6-[2-(5-Amino-1-methyl-6-oxo-1,6-dihydro-pyridin-3-yl)-1-benzyl-1H-benzoimidazol-5-yl]-5-methyl-4,5-dihydro-2H-pyridazin-3-one] has an IC50 of 145 nM. `Cn1cc(-c2nc3ccccc3n2Cc2ccccc2)cc(N)c1=O` [Example V-2, 3-amino-5-(1-benzyl-1H-benzoimidazol-2-yl)-1-methyl-1H-pyridin-2-one] showed an IC50 of 1350 nM. With `CN1CCN(c2ccc3nc(-c4cc(N)c(=O)n(C)c4)n(Cc4ccccc4)c3c2)CC1` [Example V-3] the IC50 was 73 nM. `Cn1cc(-c2nc3ccc(N4CCOCC4)cc3n2Cc2ccccc2)cc(N)c1=O` [Example V-4] was tested, and the IC50 was 133 nM. For `Cc1cc(-c2nc3cnc(N4CCN(C)CC4)cc3n2Cc2ccccc2)cn(C)c1=O` [II-1], the IC50 was 19 nM. `Cc1cc(-c2nc3cnc(N4CCOCC4)cc3n2Cc2ccccn2)cn(C)c1=O` [II-2] showed an IC50 of 54 nM. In the case of `Cc1cc(-c2nc3cnc(N4CCOCC4)cc3n2Cc2ccccc2)cn(C)c1=O` [II-3, 5-(1-Benzyl-6-morpholin-4-yl-1H-imidazo[4,5-c]pyridin-2-yl)-1,3-dimethyl-1H-pyridin-2-one], the IC50 is reported as 18 nM. `CCn1cc(-c2nc3cnc(N4CCN(C)CC4)cc3n2Cc2ccccc2)cc(C)c1=O` [II-4] was tested, and the IC50 was 55 nM. `Cc1cc(-c2nc3cnc(N4CCN(C)CC4)cc3n2Cc2ccccc2)nn(C)c1=O` [II-5] gave an IC50 of 12 nM. `CCn1cc(-c2nc3cnc(N4CCOCC4)cc3n2Cc2ccccc2)cc(C)c1=O` [II-6] was tested, and the IC50 was 163 nM. `Cc1cc(-c2nc3cnc(Cl)cc3n2Cc2ccccc2)cn(C)c1=O` [II-7, 5-(1-Benzyl-6-chloro-1H-imidazo[4,5-c]pyridin-2-yl)-1,3-dimethyl-1H-pyridin-2-one] gave an IC50 of 175 nM. `Cc1cc(-c2nc3cnccc3n2Cc2ccccc2)cn(C)c1=O` [II-8] gave an IC50 of 148 nM. `Cc1cc(-c2nc3cnc(N(C)C)cc3n2Cc2ccccc2)cn(C)c1=O` [II-9] was tested, and the IC50 was 30 nM. In the case of `Cc1nc(-c2nc3cnc(N4CCN(C)CC4)cc3n2Cc2ccccc2)cn(C)c1=O` [II-10], the IC50 is reported as 45 nM. In the case of `COC[C@H](C)n1c(-c2cc(C)c(=O)n(C)c2)nc2cnc(N3CCOC[C@@H]3C)cc21` [II-11], the IC50 is reported as 102 nM. In the case of `Cc1nc(-c2nc3cnc(N4CCOCC4)cc3n2Cc2ccccc2)cn(C)c1=O` [II-12], the IC50 is reported as 49 nM. For `Cc1cc(-c2nc3cnc(-n4ccnc4)cc3n2Cc2ccccc2)cn(C)c1=O` [II-13, 5-(1-Benzyl-6-imidazol-1-yl-1H-imidazo[4,5-c]pyridin-2-yl)-1,3-dimethyl-1H-pyridin-2-one], the IC50 was 102 nM. `Cc1cc(-c2nc3cnc(N4CCOCC4)cc3n2Cc2ccncc2)cn(C)c1=O` [II-14] was tested, and the IC50 was 63 nM. Work on `Cc1cc(-c2nc3cnc(N4CCOC[C@@H]4C)cc3n2Cc2ccccc2)cn(C)c1=O` [II-15] yielded an IC50 of 42 nM. In the case of `Cc1cc(-c2nc3cnc(N)cc3n2Cc2ccccc2)cn(C)c1=O` [II-16, 5-(6-Amino-1-benzyl-1H-imidazo[4,5-c]pyridin-2-yl)-1,3-dimethyl-1H-pyridin-2-one], the IC50 is reported as 68 nM. Work on `Cc1cc(-c2nc3cnc(N4CCOC[C@@H]4C)cc3n2Cc2ccccn2)cn(C)c1=O` [II-17] yielded an IC50 of 160 nM. In the case of `Cc1cc(-c2nc3cnc(N4CCOCC4)cc3n2[C@H](C)c2ccccc2)cn(C)c1=O` [II-18], the IC50 is reported as 233 nM. For `Cc1cc(-c2nc3cnc(N4CCOCC4)cc3n2[C@@H](C)c2ccccc2)cn(C)c1=O` [II-19], the IC50 was 27 nM. `Cc1cc(-c2nc3cnc(N4CCOCC4)cc3n2Cc2cccnc2)cn(C)c1=O` [II-20] was tested, and the IC50 was 33 nM. For `Cc1cc(-c2nc3cnc(N4CCN(C)CC4)cc3n2C(C)c2ccccn2)cn(C)c1=O` (stereo not drawn) [II-22], the IC50 was 34 nM. Compound `Cc1cc(-c2nc3cnccc3n2Cc2ccc(Cl)cc2)cn(C)c1=O` [II-23] has an IC50 of 33 nM. `Cc1cc(-c2nc3cnc(C(C)C)cc3n2[C@@H](C)c2ccccc2)cn(C)c1=O` [II-24] gave an IC50 of 38 nM. With `Cc1cc(-c2nc3cnc(C4CCOCC4)cc3n2[C@@H](C)c2ccccc2)nn(C)c1=O` [II-25] the IC50 was 8 nM. With `Cc1cc(-c2nc3cnc(C4CCOCC4)cc3n2[C@@H](C)c2ccccc2)cn(C)c1=O` [II-26] the IC50 was 16 nM. For `Cc1cc(-c2nc3cnccc3n2Cc2ccc(F)c(F)c2)cn(C)c1=O` [II-27], the IC50 was 166 nM. For `Cc1cc(-c2nc3cnccc3n2Cc2ccccc2F)cn(C)c1=O` [II-28], the IC50 was 128 nM. `Cc1cc(-c2nc3cnc(N4CCOC[C@@H]4C)cc3n2[C@@H](C)c2ccccn2)cn(C)c1=O` [II-29] was tested, and the IC50 was 130 nM. In the case of `COC[C@H](C)n1c(-c2cc(C)c(=O)n(C)n2)nc2cnc(N3CCOC[C@@H]3C)cc21` [II-30], the IC50 is reported as 62 nM. `Cc1cc(-c2nc3cnc(N4CCOC[C@@H]4C)cc3n2[C@@H](C)c2ccccc2)cn(C)c1=O` [II-31] showed an IC50 of 40 nM. For `Cn1cc(-c2nc3cnc(N4CCOCC4)cc3n2Cc2ccccc2)cc(Cl)c1=O` [II-32], the IC50 was 105 nM. `Cc1cc(-c2nc3cnc(C(C)C)cc3n2[C@@H](C)c2ccccn2)cn(C)c1=O` [II-33] showed an IC50 of 169 nM. For `Cc1cc(-c2nc3cnc(C4CCOCC4)cc3n2[C@@H](C)c2ccccn2)cn(C)c1=O` [II-34], the IC50 was 120 nM. Work on `Cc1cc(-c2nc3cnc(C4=CCOCC4)cc3n2C(C)c2ccccn2)cn(C)c1=O` (stereo not drawn) [II-35] yielded an IC50 of 211 nM. For `Cc1cc(-c2nc3cnc(Cl)cc3n2C(C)c2ccccn2)cn(C)c1=O` (stereo not drawn) [II-36], the IC50 was 650 nM. `Cc1cc(-c2nc3cnc(N4CCOCC4)cc3n2C(C)c2ccccn2)cn(C)c1=O` (stereo not drawn) [II-37] showed an IC50 of 172 nM. `Cc1cc(-c2nc3cnc(OC(C)C)cc3n2[C@@H](C)c2ccccn2)cn(C)c1=O` [II-38] was tested, and the IC50 was 205 nM. For `Cc1cc(-c2nc3cnc(OC4CCOC4)cc3n2[C@@H](C)c2ccccn2)cn(C)c1=O` (stereo partly drawn) [II-39], the IC50 was 211 nM. Compound `Cc1cc(-c2nc3cnc(C4=CCCCO4)cc3n2C(C)c2ccccn2)cn(C)c1=O` (stereo not drawn) [II-40] has an IC50 of 295 nM. `Cc1c(-c2nc3cnc(N4CCN(C)CC4)cc3n2Cc2ccccc2)cn(C)c(=O)c1C` [II-41] gave an IC50 of 1200 nM. `Cc1cc(-c2nc3cnc(N)cc3n2[C@@H](C)c2ccccc2)cn(C)c1=O` [II-42] was tested, and the IC50 was 35 nM. `Cc1cc(-c2nc3cnc(N4CCOC[C@@H]4C)cc3n2C(C)CC2CC2)cn(C)c1=O` (stereo partly drawn) [II-43] gave an IC50 of 50 nM. `CCOc1cc(=O)n(C)cc1-c1nc2cnc(C3CCOCC3)cc2n1[C@@H](C)c1ccccc1` [II-44] was tested, and the IC50 was 188 nM. In the case of `Cc1cc(-c2nc3cnc(C4CCOCC4)cc3n2[C@H](C)c2ccccc2)cn(C)c1=O` [II-45], the IC50 is reported as 95 nM. In the case of `CN1CCN(c2ccc3nc(-c4ccc(=O)n(C)c4)n(Cc4ccccc4)c3n2)CC1` [III-1, 5-[3-Benzyl-5-(4-methyl-piperazin-1-yl)-3H-imidazo[4,5-b]pyridin-2-yl]-1-methyl-1H-pyridin-2-one], the IC50 is reported as 697 nM. `Cn1cc(-c2nc3cccnc3n2Cc2ccccc2)ccc1=O` [III-2] was tested, and the IC50 was 1780 nM. In the case of `Cc1cc(-c2nc3cccnc3n2Cc2ccccc2)cn(C)c1=O` [III-3], the IC50 is reported as 45 nM. With `Cc1cc(-c2nc3ccc(OC(C)C)nc3n2[C@@H](C)c2ccccn2)nn(C)c1=O` [III-4] the IC50 was 118 nM. For `Cc1cc(-c2nc3ccc(OC(C)C)nc3n2[C@@H](C)c2ccccc2)nn(C)c1=O` [III-5], the IC50 was 117 nM. For `CCCOc1ccc2nc(-c3cc(C)c(=O)n(C)c3)n([C@@H](C)c3ccccc3)c2n1` [III-6], the IC50 was 108 nM. For `Cc1cc(-c2nc3ccc(OC(C)C)nc3n2C(C)c2ccccn2)cn(C)c1=O` (stereo not drawn) [III-7], the IC50 was 220 nM. `Cc1cc(-c2nc3ccc(OC4CCN(C)CC4)nc3n2C(C)c2ccccn2)cn(C)c1=O` (stereo not drawn) [III-9] gave an IC50 of 217 nM. Work on `Cc1cc(-c2nc3ncccc3n2Cc2ccccc2)cn(C)c1=O` [IV-1] yielded an IC50 of 313 nM. In the case of `CC1CC(=O)NN=C1c1ccc2c(c1)nc(-c1ccc(=O)n(C)c1)n2Cc1ccccc1` (stereo not drawn) [IV-2], the IC50 is reported as 218 nM. `Cc1cc(-c2nc3cc(Cl)cnc3n2Cc2ccccc2)cn(C)c1=O` [IV-3] showed an IC50 of 188 nM. In the case of `Cc1cc(-c2nc3ccncc3n2Cc2ccccc2)cn(C)c1=O` [IV-4], the IC50 is reported as 60 nM. Work on `Cc1cc(-c2nc3cc(N4CCOCC4)cnc3n2Cc2ccccc2)cn(C)c1=O` [IV-5] yielded an IC50 of 32 nM. For `Cc1cc(-c2nc3cc(N4CCN(C)CC4)cnc3n2Cc2ccccc2)cn(C)c1=O` [IV-6], the IC50 was 23 nM. Compound `Cc1cc(-c2nc3cc(C4CCOCC4)cnc3n2Cc2ccccc2)cn(C)c1=O` [IV-7] has an IC50 of 16 nM. Work on `Cc1cnc2c(c1)nc(-c1cc(C)c(=O)n(C)c1)n2Cc1ccccc1` [IV-8] yielded an IC50 of 70 nM. `Cc1cc(-c2nc3cc(S(=O)(=O)N(C)C)cnc3n2Cc2ccccc2)cn(C)c1=O` [IV-9] was tested, and the IC50 was 119 nM. `Cc1cc(-c2nc3cccc(C)c3n2Cc2ccccn2)cn(C)c1=O` [IV-10] was tested, and the IC50 was 109 nM. With `Cc1cc(-c2nc3cnc(N4CCOC[C@@H]4C)nc3n2[C@@H](C)c2ccccc2)cn(C)c1=O` [IV-11] the IC50 was 12 nM.
